The values that follow come from patent publication US20230054895A1, “METHODS FOR INDUCING BIOSTASIS IN A CELL, TISSUE OR ORGAN” (PRESIDENT AND FELLOWS OF HARVARD COLLEGE, priority 2020, published 2023).

In data set [1] the test system is Xenopus tadpoles. As to the kind of experiment: Oxygen consumption of Xenopus tadpoles and embryos. In kind it is in vivo, Xenopus laevis.
Data set [2] relates to Xenopus embryos. From the text:
Developed tail length assay are used to assess embryo tail development during drug contact.
Automated embryo culture and imaging platform with machine vision processing. Analysis pipeline allows screening scale-up to hundreds of embryos at a given time.
The effects of ^2H2O on metabolism were examined in relation to biostasis in vivo. Xenopus embryos were contacted with 0.1×MMR media prepared with various concentrations of ^2H2O.

The test system of data set [3] is Xenopus tadpoles. As to the kind of experiment: Movement / swimming of Xenopus tadpoles (stasis and reversal). In kind it is in vivo, Xenopus laevis. As to the method:
This slowing of motion is reversible; average movement of the Xenopus tadpoles is returned to pre-treatment levels following removal of Donepezil. […] The drug is removed at 30 minutes, as indicated by the hash-line. Movement resumed within 50 min after drug removal.
To determine if this slowing of movement is reversible, the drug was removed from the culture medium after 30 minutes (denoted by the hashed-line). Movement resumed at the pre-treatment level within 50 min after drug removal.
The effects of SNC-80 and the NCX1 inhibitor KB-R7943 mesylate (also referred to herein as “WC-60) were evaluated alone and in combination. Tadpoles were exposed to SNC-80 at 25 μM for 24 hr continuously, and swimming was assessed. […] Similarly, no effect on oxygen consumption was observed when tadpoles were exposed to KB-R7943 mesylate at 35 uM for 24 h continuously (FIG. 25B).

The test system of data set [4] is Xenopus tadpoles. In kind it is in vivo. To be noted: 50 uM for 30 min, recovery, tested over 24 h. As for the experimental part: Tadpoles were then tested over a 24 h period in an automated behavior and cognitive testing platform to measure cognitive or motor function.
Finally, the cognitive and motor function performance of Xenopus tadpoles treated with Donepezil was assessed. […] Following the onset of stasis, the drug was removed and tadpoles were allowed to recover. Tadpoles were then tested over a 24 hour period in an automated behavior and cognitive testing platform to measure whether tadpoles that previously went through stasis had decreased cognitive and motor function performance.

The test system of data set [5] is Caco-2 cells. The data set can be described thus: Intracellular ATP in Caco-2 cells. In kind it is cell-based.
The test system of data set [6] is Caco-2 cells. The data set can be described thus: Respiration / oxygen utilization in Caco-2 cells. In kind it is cell-based.
Data set [7] deals with Xenopus tadpoles. The data set can be described thus: Oxygen consumption of Xenopus tadpoles and embryos. It counts as in vivo, Xenopus laevis. An excerpt:
Dynamic drug dosing used to examine stasis control parameters (10 tadpoles/chamber, n=3 replicates).
The oxygen consumption assay described herein above was used.
The source holds these as a separate data set.

The conditions of data set [8]: high doses; cited from earlier work.
Data set [9] relates to pig hind limb. As to the kind of experiment: Pig hind limb ex vivo perfusion on ULiSSES Platform (biostasis of a pig limb). As to the method: Protocol for Evaluating the Effect of an Agent on Inducing Biostasis of a Pig Limb.
The establishment of biostasis in a mammal according to the methods described herein was evaluated in a pig limb model. Prior to removing a hind limb from the animal, a pre-operation blood draw was preformed to obtain a baseline. The hind limb was removed via an amputation, and four muscle biopsies were immediately taken. For use in RT-PCR, a first biopsy was stored at −80° C. to preserve RNA integrity. For histology, a second biopsy was fixed in formalin and stored at 2-4° C. or at room temperature. For use in ELISA, a third biopsy was snap frozen and stored at −80° C. Finally, in lieu of Microdialysis, a fourth biopsy was snap frozen and stored at −80° C.
The limb was first flushed with 4° C. heparinized Krebs Henseleit Buffer alone. The limb was then weighed and attached to the ULiSSES Platform. The Platform was run subnormothermic relative to […] (e.g., 18-23° C.). During the protocol, the limb was perfused with buffer alone (control) or buffer with SNC-80. Further description of the ULiSSES Platform can be found on the world wide web at www.techbriefs.com/component/content/article/tb/stories/blog/35406.
Following the limb being attached to the platform (time 0 hour), an RNA-preserving biopsy, a formalin-fixed biopsy, and a snap frozen biopsy were taken, and a perfusate sample was also taken. The “perfusate sample” is a sample that is assessed for arterial and […] blood gases, and subjected to a blood chemistry panel to measure sodium, potassium, glucose, and lactate levels. The perfusate sample is further snap frozen for other analyses, including RNAseq and cytokine analysis.
These sampling steps were further repeated at times 3 hours, 6 hours, 12 hours, and 24 hours. At times 9 hours, 15 hours, 18 hours, and 21 hours, a perfusate sample was taken.
The protocol was completed at time 24 hours. The limb was removed from the ULiSSES Platform and weighed. Separate, proof of concept experiments were performed as described above, but were completed at time 6 hours.

Data set [10] has as its system mice. Particulars: FIG. 1, Rawls and Cowan 2006; cited from earlier work.
The test system of data set [11] is Xenopus tadpoles. The data set can be described thus: Movement / swimming of Xenopus tadpoles (stasis and reversal). In kind it is in vivo, Xenopus laevis. This is another data set of the same source.
For data set [12], the system named is Caco-2 cells. The data set can be described thus: NAD/NADH live reporting in Caco-2 cells. In kind it is cell-based. Particulars: 100 uM, p<0.0005, comparable to positive control sodium oxamate.
Data set [13] deals with rats. Particulars: via delta-2 opioid receptor; cited from earlier work.
In data set [14] the test system is tadpoles. The data set can be described thus: Life span of tadpoles in low-oxygen environments. In kind it is in vivo, Xenopus. To be noted: 50% ^2H2O-treated tadpoles; MMR controls 6 hours. As for the experimental part: At the indicated consumption rate, ^2H2O-treated tadpoles survive for >30 hours as compared to 6 hours for MMR controls.
Data set [15] concerns Xenopus tadpoles. The data set can be described thus: Recovery from Donepezil-induced biostasis in tadpoles (tail length, oxygen consumption). It counts as in vivo. Particulars: 50 mM kestose in MMR vs MMR alone. As for the experimental part:
To determine if an agent plays a role in accelerating recovery following induction of biostasis, tadpoles can be treated with a biostasis-inducing agent as described herein, to induce biostasis and then transferred to a medium containing a test agent, or just medium. Recovery is assessed by assessing development rate following recovery (e.g., by measuring tadpole tail length), movement, and oxygen consumption.

The mark [16] stands for this setting: 25 μM SNC-80, 24 hr continuously.
Where [17] appears, read: compared to control treated limb.
The mark [18] stands for this setting: perfusate, vs control treatment.
The mark [19] stands for this setting: prior to and following treatment.
Setting [20] is: 50% ^2H2O, 4 days biostasis, 3 days of recovery.

Entries after “also recorded” stand apart in the source; their conditions may differ. Structures can show the parent of a compound that is named as a salt. Where two headings read alike, the source gives them in different places.

As to `CCN(CC)CCCN(c1ccccc1)C1Cc2ccccc2C1` [Aprindine], in [1] (25 uM, after 20 min of exposure, vs vehicle controls), the “oxygen consumption of free swimming tadpoles” value is listed as “decreased oxygen consumption”.
For `COc1cc2c(cc1OC)C(=O)C(CC1CCN(Cc3ccccc3)CC1)C2` (stereo not shown) [Donepezil, 2-((1-Benzylpiperidin-4-yl)methyl)-5,6-dimethoxy-2,3-dihydro-1H-inden-1-one], the tail length entry in [2] (Xenopus tadpoles, compared to vehicle control or SNC-80) was “reduced tail length”. Also, the “time to slowing of motion after drug addition” value in data set [3] (50 uM Donepezil) is given as at most 10 min. The “time to resumption of movement after drug removal” value in data set [3] (50 uM Donepezil removed at 30 minutes) is on record as at most 50 min. For the same compound, in data set [4], the cognitive performance entry is “may have slightly improved cognitive performance”.
Regarding `N=C(N)SCCc1ccc(OCc2ccc([N+](=O)[O-])cc2)cc1` [KB-R7943 mesylate], in [3] (KB-R7943 mesylate, data not shown), the swimming entry is “decreased swimming”. Further, the “oxygen consumption in tadpoles” value in data set [1] (35 μM KB-R7943 mesylate, 24 h continuously) was “no effect”; in [1] (35 μM KB-R7943 mesylate, 24 h continuously, listed as KB-R7943 Mesylate), “No change”.
As to `Oc1ccc2c3c1O[C@H]1c4[nH]c5ccccc5c4C[C@@]4(O)[C@@H](C2)N(CC2CC2)CC[C@]314` [Naltrindole], the “blocking of the stasis-inducing effects of SNC-80” value in [1] (concentrations up to 100 uM, 4 h of exposure) was “does not block”.
As to `C=CCN1C[C@H](C)N([C@H](c2ccc(C(=O)N(CC)CC)cc2)c2cccc(OC)c2)C[C@H]1C` [SNC-80, (+)-4-[(αR)-α-((2S,5R)-4-Allyl-2,5-dimethyl-1-piperazinyl)-3-methoxybenzyl]-N,N-diethylbenzamide], the “reduction of embryo length compared to control” value in data set [2] (0.4 μM SNC-80 (n=5) vs control (n=6), end of dosing period t=48 h) turned out to be 19.8%. In data set [2] (0.4 μM SNC-80, after drug removal), the “embryo length after drug removed” value is listed as “caught up to controls”. In addition, the “intracellular ATP” value in data set [5] is recorded as “reduction in intracellular ATP levels”; in data set [5] (listed as SNC80), “reduces intracellular ATP”. Further, the results for the “respiration / oxygen utilization” value in data set [6] and in data set [6] (listed as SNC80) were “did not inhibit oxygen utilization” and “respiration unchanged”, respectively. Besides, in data set [7] (60 μM dose, dynamic dosing, 10 tadpoles/chamber, n=3), the “delay in impacting oxygen metabolism” value is given as about 10 min. Also, the “oxygen consumption and other metrics of metabolic rate” value in data set [7] (healthy tissues and Xenopus tadpoles, dose dependence) is listed as “dose-dependent reduction in oxygen consumption”. In addition, the induction of biostasis result in [3] (25 μM SNC-80) was “not sufficient to induce biostasis”. Besides, the swimming entry in data set [3] (setting [16]) is listed as “normal swimming”. The “reversibility of movement arrest” value in data set [3] (removal / withdrawal of the drug) is recorded as “reversed upon withdrawal of the drug; also recorded: reversed by removal of the drug”. Also, the convulsions result in data set [8] is given as “produces convulsions at high doses”. Also, the “relative metabolic rate in hind limb” value in [9] (3 hours post treatment, slope vs control P<0.0001) is listed as “marked reduction of metabolic rate; also recorded: noticeable reduction”; in [9] (vs control (perfusion medium alone)) it was “markedly reduces metabolic rate”. Moreover, the “oxygen uptake in hind limb” value in data set [9] (10 hours post-treatment, vs control treated limb) was “noticeable reduction”; in data set [9] (24 hours post-treatment, vs control treated limb), “marked reduction”; in data set [9] (setting [17]), “markedly reduces oxygen uptake”. Further, the “change in mass of limb prior to and following treatment” value in data set [9] (setting [17]) is “larger change in a mass; also recorded: greater difference”. For the same compound, the “oxygen uptake levels relative to hypothermic conditions” value in data set [9] (data not shown) was “greater extent than hypothermic conditions”. Also, the glucose level entry in [9] (setting [18]) was “No change; also recorded: not a marked difference”. Besides, in data set [9] (setting [18]), the lactate level result is on record as “No change; also recorded: not a marked difference”. The potassium level result in data set [9] (setting [18]) is on record as “No change; also recorded: not a marked difference”. Further, the “glycogen content inside the cells (PAS, optical density)” value in data set [9] (setting [19]) is given as “remains at a basal level”. Further, the “intercellular edema (histology of limb muscle)” value in [9] (setting [19]) is reported as “increase in intercellular edema”. The “muscle bundle area (histology)” value in [9] (setting [19]) was “did not increase significantly”. Besides, the “oxygen consumption in tadpoles” value in data set [1] (setting [16]) is “No change; also recorded: normal”; in data set [1] (stasis inducing concentration of SNC-80 in combination with 100 uM Naltrindole), “remains decreased”. In [1] (Xenopus embryos, FIG. 7), the “oxygen consumption of embryos” value is “reduces oxygen consumption”. Besides, the figures for the hypothermia result in data set [10] and in data set [13] were “induces hypothermia” and “induce hypothermia”, respectively. Further, in data set [11] (FIG. 8), the “biostatic effect in Xenopus laevis tadpoles” value is “reversible biostatic effect”. For the same compound, in [11] (Xenopus tadpoles), the “concentration resulting in arrest of tadpole movement” value is over 100 µM. In addition, in [11] (high-dose administration), the “movement of whole animals” value is on record as “completely arrested”. In data set [12], the NAD/NADH ratio result is “significant increase”.
Take `[2H]O[2H]` [^2H2O, Deuterium oxide]: the “survival in low-oxygen environment at the indicated consumption rate” value in [14] was over 30 h. Also, the embryo length result in [2] (50% ^2H2O in 0.1×MMR) was “marked reduction in embryo length”. For the same compound, the “adverse effects after recovery” value in data set [2] (setting [20]) is “do not exhibit adverse effects”. Besides, in [2] (setting [20]), the “developmental state after recovery” value was “remain developmentally delayed”. Also, the “concentrations with no effect on tail length” value in data set [2] (Xenopus embryos) is reported as under 50%. Besides, the “concentrations that were toxic” value in data set [2] (Xenopus embryos, data not shown) was over 70%; in [11] (tadpoles), over 70%. Also, the “concentrations with no effect on swimming” value in [3] (tadpoles) is reported as under 50%. The “oxygen consumption of embryos” value in [1] (50% ^2H2O, within hours of contact) is “reduced oxygen consumption”. The “time to slowed swimming” value in data set [11] (50% ^2H2O) was at most 10 min. For the same compound, the “swimming after return to normal media” value in [11] (without ^2H2O, data not shown) was “returned to normal”.
On to `OC[C@H]1O[C@@](CO)(OC[C@@]2(O[C@H]3O[C@H](CO)[C@@H](O)[C@H](O)[C@H]3O)O[C@H](CO)[C@@H](O)[C@@H]2O)[C@@H](O)[C@@H]1O` [kestose], for which the “recovery from biostasis induced via Donepezil” value in [15] was “faster recovery”.
